Reference: patent publication US10544095B2 (Pfizer Inc., priority 2015, dated 2020)

What follows are molecules tested against hTDO2 in human glioblastoma A172 cells (Homo sapiens (Human), UniProt P48775) (assay: Cellular assay for TDO2 activity determination in A172 cells). Details: overnight incubation, kynurenine absorbance at 480 nm.
Chain of hTDO2 in human glioblastoma A172 cells (P48775 whole entry): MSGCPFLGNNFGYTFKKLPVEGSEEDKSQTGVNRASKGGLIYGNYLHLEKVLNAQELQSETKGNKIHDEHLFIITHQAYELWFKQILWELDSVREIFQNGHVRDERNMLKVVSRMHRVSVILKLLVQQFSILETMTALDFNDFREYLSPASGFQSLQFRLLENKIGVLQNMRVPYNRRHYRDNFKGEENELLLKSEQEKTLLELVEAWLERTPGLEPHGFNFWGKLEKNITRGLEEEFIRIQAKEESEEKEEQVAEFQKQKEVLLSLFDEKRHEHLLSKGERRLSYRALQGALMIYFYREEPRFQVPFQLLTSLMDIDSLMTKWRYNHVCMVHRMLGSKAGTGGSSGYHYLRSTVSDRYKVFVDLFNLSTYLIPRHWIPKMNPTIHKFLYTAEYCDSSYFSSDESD
Format: cell-based
Experimental: The compounds of formula I inhibit the activity of human TDO2 in cells that constitutively express TDO2, such as A172 cells. A172 is a cell line derived from human brain glioblastoma cells. The cells are available from the American Type Culture Collection (ATCC®) as CRL-1620™.
The assay (adapted from Pilotte L et al., Proc Natl Acad Sci USA, 2012, 109(7), 2497-502) was performed in 96-well flat bottom plates seeded with human glioblastoma A172 cells, naturally expressing hTDO2 (prepared as described in Tilman et al., Mol Cancer, 2007, 17(6), 80), at a concentration of 1.25×10^4 cells/well in a final volume of 200 μL. To determine TDO, the cells were incubated overnight at 37° C. at 5% CO2 in IMDM (Invitrogen) supplemented with 2% FBS and 2% penicillin/streptomycin in the presence of the compounds of the present invention, at different concentrations.
The plates were then centrifuged 5 min at 1000 rpm, and 100 μL of the supernatant were collected in a conical plate, 30 μL of TCA 30% were added and a further centrifuged at 3000×g for 10 minutes. 100 μL of the supernatant were collected in a flat bottomed plate and 100 μL of 2% (w/v) 4-(dimethylamino)-benzaldehyde in acetic acid and incubated for 5 min at room temperature. Kynurenine concentrations were determined by measuring the absorbance at 480 nm. A standard curve was made with pure kynurenine. The TDO activity was measured as described above using ten serial concentrations of the compounds of the present invention. Data were fitted using the Prism™ software (GraphPad Software, Inc.) using standard parameters.
In the case of `O=S(=O)(N[C@@H]1CCOC1)c1ccc(-c2c[nH]c3cc(F)ccc23)cc1` [Example 55, (R)-4-(6-fluoro-1H-indol-3-yl)-N-(tetrahydrofuran-3-yl)-benzenesulfonamide], the IC50 is reported as 210 nM. For `Cc1ccc(-c2c[nH]c3cc(F)ccc23)cc1S(=O)(=O)NCCN` [Example 56, N-(2-aminoethyl)-5-(6-fluoro-1H-indol-3-yl)-2-methylbenzenesulfonamide], the IC50 was 670 nM. In the case of `CNC(=O)c1cc(-c2c[nH]c3cc(F)ccc23)ccc1S(=O)(=O)N1CCNCC1` [Example 57, 5-(6-fluoro-1H-indol-3-yl)-N-methyl-2-(piperazin-1-ylsulfonyl)-benzamide], the IC50 is reported as 7100 nM. In the case of `Cc1noc(CCNS(=O)(=O)c2ccc(-c3c[nH]c4cc(F)ccc34)cc2)n1` [Example 59, 4-(6-fluoro-1H-indol-3-yl)-N-(2-(3-methyl-1,2,4-oxadiazol-5-yl)-ethyl)benzenesulfonamide], the IC50 is reported as 360 nM. With `CNC(=O)n1cc(-c2ccc(S(=O)(=O)N3CCNCC3)cc2)c2ccc(F)cc21` [Example 60, 6-fluoro-N-methyl-3-(4-(piperazin-1-ylsulfonyl)phenyl)-1H-indole-1-carboxamide] the IC50 was 9100 nM. `COc1cc(-c2c[nH]c3cc(F)ccc23)cc(S(=O)(=O)NCCN)c1` [Example 61, N-(2-aminoethyl)-3-(6-fluoro-1H-indol-3-yl)-5-methoxybenzene-sulfonamide] was tested, and the IC50 was 4300 nM. In the case of `NCCNS(=O)(=O)c1ccc(F)c(-c2c[nH]c3cc(F)ccc23)c1` [Example 62, N-(2-aminoethyl)-4-fluoro-3-(6-fluoro-1H-indol-3-yl)benzene-sulfonamide], the IC50 is reported as 3500 nM. With `O=S(=O)(c1ccc(-c2c[nH]c3cc(F)ccc23)cc1)N1CC(CO)C1` [Example 63, (1-((4-(6-fluoro-1H-indol-3-yl)phenyl)sulfonyl)-azetidin-3-yl)methanol] the IC50 was 170 nM. `O=S(=O)(N[C@H]1CCOC1)c1ccc(-c2c[nH]c3cc(F)ccc23)cc1` [Example 64, (S)-4-(6-fluoro-1H-indol-3-yl)-N-(tetrahydrofuran-3-yl)-benzenesulfonamide] gave an IC50 of 270 nM. `O=S(=O)(c1ccc(-c2c[nH]c3cc(F)ccc23)cc1)N1CC(O)C1` [Example 65, 1-((4-(6-fluoro-1H-indol-3-yl)phenyl)sulfonyl)azetidin-3-ol] was tested, and the IC50 was 160 nM. In the case of `O=S(=O)(c1ccc(-c2c[nH]c3cc(F)ccc23)cc1)N1C[C@H](O)[C@@H](O)C1` [Example 66, (3S,4S) 1-[4-(6-Fluoro-1H-indol-3-yl)-benzenesulfonyl]-pyrrolidine-3,4-diol], the IC50 is reported as 84 nM. `NC(=O)C1CN(S(=O)(=O)c2ccc(-c3c[nH]c4cc(F)ccc34)cc2)C1` [Example 67, 1-((4-(6-fluoro-1H-indol-3-yl)phenyl)sulfonyl)azetidine-3-carboxamide] was tested, and the IC50 was 180 nM. In the case of `O=S(=O)(NC1CNC1)c1ccc(-c2c[nH]c3cc(F)ccc23)cc1` [Example 68, N-(azetidin-3-yl)-4-(6-fluoro-1H-indol-3-yl)benzenesulfonamide], the IC50 is reported as 140 nM. For `NCCNS(=O)(=O)c1cc(O)cc(-c2c[nH]c3cc(F)ccc23)c1` [Example 69, N-(2-aminoethyl)-3-(6-fluoro-1H-indol-3-yl)-5-hydroxy-benzenesulfonamide], the IC50 was 330 nM. Molecule `CC(=O)n1cc(-c2ccc(S(=O)(=O)N3CCNCC3)cc2)c2ccc(F)cc21` [Example 70, 1-(6-fluoro-3-(4-(piperazin-1-ylsulfonyl)phenyl)-1H-indol-1-yl)ethanone] has an IC50 of 580 nM. `Cc1cc(-c2c[nH]c3cc(F)ccc23)cc(C)c1S(=O)(=O)N1CCNCC1` [Example 71, 3-(3,5-dimethyl-4-(piperazin-1-ylsulfonyl)phenyl)-6-fluoro-1H-indole] showed an IC50 of 450 nM. Molecule `O=S(=O)(NCCc1c[nH]nn1)c1ccc(-c2c[nH]c3cc(F)ccc23)cc1` [Example 72, N-(2-(1H-1,2,3-triazol-4-yl)ethyl)-4-(6-fluoro-1H-indol-3-yl)benzenesulfonamide] has an IC50 of 300 nM. In the case of `O=S(=O)(NCCc1ncc[nH]1)c1ccc(-c2c[nH]c3cc(F)ccc23)cc1` [Example 73, N-(2-(1H-imidazol-2-yl)ethyl)-4-(6-fluoro-1H-indol-3-yl)benzenesulfonamide], the IC50 is reported as 150 nM. For `O=S(=O)(c1ccc(-c2c[nH]c3cc(F)ccc23)cc1)N1C[C@@H](O)[C@H](O)C1` [Example 74, (3R,4R)-1-((4-(6-fluoro-1H-indol-3-yl)phenyl)-sulfonyl)pyrrolidine-3,4-diol], the IC50 was 96 nM. `O=S(=O)(c1c(F)cc(-c2c[nH]c3cc(F)ccc23)cc1F)N1CCNCC1` [Example 75, 3-(3,5-difluoro-4-(piperazin-1-ylsulfonyl)phenyl)-6-fluoro-1H-indole] showed an IC50 of 380 nM. In the case of `NC(=O)n1cc(-c2ccc(S(=O)(=O)N3CCNCC3)cc2)c2ccc(F)cc21` [Example 78, 6-fluoro-3-(4-(piperazin-1-ylsulfonyl)phenyl)-1H-indole-1-carboxamide], the IC50 is reported as 18000 nM. `N[C@@H]1CN(S(=O)(=O)c2ccc(-c3c[nH]c4cc(F)ccc34)cc2)C[C@H]1F` [Example 82, (3R,4R)-4-fluoro-1-{[4-(6-fluoro-1H-indol-3-yl)phenyl]sulfonyl}pyrrolidin-3-amine] showed an IC50 of 250 nM. With `N[C@@H]1CN(S(=O)(=O)c2ccc(-c3c[nH]c4cc(F)ccc34)cc2)C[C@@H]1F` [Example 83, (−)-(cis)-4-fluoro-1-((4-(6-fluoro-1H-indol-3-yl)-phenyl)sulfonyl)-pyrrolidin-3-amine] the IC50 was 110 nM. Work on `CC(NS(=O)(=O)c1ccc(-c2c[nH]c3cc(F)ccc23)cc1)c1nncn1C` (stereo not shown) [Example 85, 4-(6-fluoro-1H-indol-3-yl)-N-[1-(4-methyl-4H-1,2,4-triazol-3-yl)ethyl]benzenesulfonamide] yielded an IC50 of 390 nM. Molecule `Cc1nnc(CNS(=O)(=O)c2ccc(-c3c[nH]c4cc(F)ccc34)cc2)o1` [Example 89, 4-(6-fluoro-1H-indol-3-yl)-N-((5-methyl-1,3,4-oxadiazol-2-yl)methyl) benzenesulfonamide] has an IC50 of 200 nM. With `Cn1nccc1NS(=O)(=O)c1ccc(-c2c[nH]c3cc(F)ccc23)cc1` [Example 91, 4-(6-fluoro-1H-indol-3-yl)-N-(1-methyl-1H-pyrazol-5-yl)benzenesulfonamide] the IC50 was 1800 nM. `Cn1cnnc1CNS(=O)(=O)c1ccc(-c2c[nH]c3cc(F)ccc23)cc1` [Example 92, 4-(6-fluoro-1H-indol-3-yl)-N-[(4-methyl-4H-1,2,4-triazol-3-yl)methyl]-benzenesulfonamide] gave an IC50 of 560 nM. `CNS(=O)(=O)CCN(C)S(=O)(=O)c1ccc(-c2c[nH]c3cc(F)ccc23)cc1` [Example 100, 4-(6-fluoro-1H-indol-3-yl)-N-methyl-N-[2-(methylsulfamoyl)ethyl]benzenesulfonamide] was tested, and the IC50 was 100 nM. `C[C@@H](CO)NS(=O)(=O)c1ccc(-c2c[nH]c3cc(F)ccc23)cc1` [Example 101, (−)-(6-fluoro-1H-indol-3-yl)-N-[(2S)-1-hydroxypropan-2-yl]benzenesulfonamide] gave an IC50 of 93 nM. `O=C(CCNS(=O)(=O)c1ccc(-c2c[nH]c3cc(F)ccc23)cc1)N1CCNCC1` [Example 102, 4-(6-fluoro-1H-indol-3-yl)-N-(3-oxo-3-(piperazin-1-yl)propyl) benzenesulfonamide] gave an IC50 of 260 nM. `CN1CCN(C(=O)CCNS(=O)(=O)c2ccc(-c3c[nH]c4cc(F)ccc34)cc2)CC1` [Example 103, 4-(6-fluoro-1H-indol-3-yl)-N-(3-(4-methylpiperazin-1-yl)-3-oxopropyl) benzenesulfonamide] gave an IC50 of 260 nM. `O=C(CCNS(=O)(=O)c1ccc(-c2c[nH]c3cc(F)ccc23)cc1)N[C@H]1CCOC1` [Example 104, (−)-(S)-3-(4-(6-fluoro-1H-indol-3-yl)phenylsulfonamido)-N-(tetrahydrofuran-3-yl)propanamide] was tested, and the IC50 was 240 nM. With `N[C@H]1CN(C(=O)CCNS(=O)(=O)c2ccc(-c3c[nH]c4cc(F)ccc34)cc2)C[C@@H]1F` [Example 105, (−)-N-(3-((3S,4S)-3-amino-4-fluoropyrrolidin-1-yl)-3-oxopropyl)-4-(6-fluoro-1H-indol-3-yl)benzenesulfonamide] the IC50 was 220 nM. For `O=C(CCNS(=O)(=O)c1ccc(-c2c[nH]c3cc(F)ccc23)cc1)N1CCOCC1` [Example 106, 4-(6-fluoro-1H-indol-3-yl)-N-(3-morpholino-3-oxopropyl)-benzenesulfonamide], the IC50 was 270 nM. For `O=C(CCNS(=O)(=O)c1ccc(-c2c[nH]c3cc(F)ccc23)cc1)N[C@@H]1CCOC1` [Example 107, (+)-(R)-3-(4-(6-fluoro-1H-indol-3-yl)phenylsulfonamido)-N-(tetrahydrofuran-3-yl)propanamide], the IC50 was 160 nM. With `O=C(NCCNS(=O)(=O)c1ccc(-c2c[nH]c3cc(F)ccc23)cc1)N1CCOCC1` [Example 108, N-(2-(4-(6-fluoro-1H-indol-3-yl)phenylsulfonamido)ethyl)-morpholine 4-carboxamide] the IC50 was 170 nM. In the case of `O=C(NCCNS(=O)(=O)c1ccc(-c2c[nH]c3cc(F)ccc23)cc1)N1CCNCC1` [Example 109, N-(2-(4-(6-fluoro-1H-indol-3-yl)phenylsulfonamido)ethyl) piperazine-1-carboxamide], the IC50 is reported as 1000 nM.
